How the values were obtained:
Assay type in all cases: biochemical
c-Met kinase = target: T1, c-Met kinase (Homo sapiens, UniProt P08581); assay: c-Met kinase assay (33P incorporation into Poly(Glu-Tyr)); settings: 500 nM test compound
T1 construct: recombinant N-terminal 6×His-tagged c-Met kinase domain construct expressed from baculovirus; 6xHis (N); made in house
How it was run: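 Recombinant N-terminal 6×His-tagged c-Met kinase domain (baculovirus-expressed, 5 ng) acted on Poly(Glu-Tyr) 4:1 with 100 μM ATP plus [33P]-γ-ATP in MOPS pH 7.0 buffer, 30 min at 30° C. Compound was at 500 nM. Filter-retained radioactivity was compared with the DMSO control to give percent inhibition.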

Aurora B kinase = target: T2, Aurora B kinase (Homo sapiens, UniProt Q96GD4); assay: Aurora B kinase assay ([γ-33P]ATP, CHOCKtide substrate); settings: for inhibition at 1 µM: 1.0 μM test compound
T2 construct: purchased Cell signaling
T2 sequence (Q96GD4 whole entry): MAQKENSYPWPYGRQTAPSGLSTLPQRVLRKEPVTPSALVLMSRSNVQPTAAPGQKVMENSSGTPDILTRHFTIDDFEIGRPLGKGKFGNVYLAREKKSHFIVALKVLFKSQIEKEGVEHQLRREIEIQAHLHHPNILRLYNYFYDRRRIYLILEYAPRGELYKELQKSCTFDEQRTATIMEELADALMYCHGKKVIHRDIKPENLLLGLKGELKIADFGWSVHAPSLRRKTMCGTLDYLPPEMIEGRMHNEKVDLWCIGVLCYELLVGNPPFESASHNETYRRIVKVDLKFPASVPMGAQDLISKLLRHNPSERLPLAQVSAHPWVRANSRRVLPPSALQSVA
How it was run: (§1)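 Recombinant Aurora A (1 ng) or Aurora B (2.5 ng) incubated with test compound, CHOCKtide (1 μg) and [γ-33P]ATP/ATP at 10 μM (Aurora A) or 40 μM (Aurora B), 30 min at 33 °C. Stopped with phosphoric acid; filter-bound 33P counted; IC50 = half-maximal inhibition.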

Aurora A kinase = target: T3, Aurora A kinase (Homo sapiens, UniProt O14965); assay: Aurora A kinase assay ([γ-33P]ATP, CHOCKtide substrate); settings: for inhibition at 1 µM: 1.0 μM test compound
T3 construct: purchased Upstate
T3 sequence (O14965 1-403): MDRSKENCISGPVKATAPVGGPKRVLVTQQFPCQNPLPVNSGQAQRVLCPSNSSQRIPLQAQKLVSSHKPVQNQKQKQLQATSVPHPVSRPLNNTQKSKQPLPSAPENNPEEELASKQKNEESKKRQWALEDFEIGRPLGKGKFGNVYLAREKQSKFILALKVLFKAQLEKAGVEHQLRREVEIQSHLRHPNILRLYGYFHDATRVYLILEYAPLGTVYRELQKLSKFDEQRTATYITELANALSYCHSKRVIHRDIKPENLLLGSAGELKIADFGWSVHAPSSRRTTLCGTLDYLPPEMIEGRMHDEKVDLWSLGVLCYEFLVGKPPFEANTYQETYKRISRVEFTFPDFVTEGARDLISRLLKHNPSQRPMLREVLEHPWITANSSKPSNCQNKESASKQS
How it was run: as §1

VEGFR2 kinase = target: T4, VEGFR2 kinase (Homo sapiens, UniProt P35968); assay: VEGFR2 kinase assay (33P incorporation into Poly(Glu-Tyr)); settings: 500 nM test compound; read-out: Inhibition at 500 nM (%) VEGFr-2
T4 construct: recombinant N-terminal 6×His-tagged VEGFR2 kinase domain construct expressed by baculovirus; 6xHis (N); made in house
T4 sequence (P35968 834-1162 limits assumed): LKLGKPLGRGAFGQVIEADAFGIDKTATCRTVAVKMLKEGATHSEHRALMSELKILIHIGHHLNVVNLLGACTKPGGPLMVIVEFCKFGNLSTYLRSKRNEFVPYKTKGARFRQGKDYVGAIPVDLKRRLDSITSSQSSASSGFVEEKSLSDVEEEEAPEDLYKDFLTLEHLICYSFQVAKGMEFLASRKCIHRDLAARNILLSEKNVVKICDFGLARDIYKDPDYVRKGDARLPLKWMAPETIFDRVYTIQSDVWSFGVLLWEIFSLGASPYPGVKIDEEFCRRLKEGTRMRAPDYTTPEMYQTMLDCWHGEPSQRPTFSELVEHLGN
Protocol: Inhibition of VEGFR2 kinase activity by compounds disclosed herein was quantified by measuring the amount of [^33P] incorporated into the substrate in the presence of a test compound. Specifically, a reaction mixture with a final volume of 25 μL and containing 6.25 ng of VEGFR2 kinase (obtained by purifying recombinant N-terminal 6×His-tagged VEGFR2 kinase domain construct expressed by baculovirus), 5 μg of substrate (Poly (Glu-Tyr, 4:1, Sigma)), kinase reaction buffer (20 mM MOPS pH 7.0, 1 mM EDTA, 5% glycerol, 0.01% Brij-35, 0.1% β-mercaptoethanol, 1 mg/mL BSA, 100 μM ATP, 0.1 μCi per well [^33P]-γ-ATP (2,500-3,000 Ci/mmol), and 500 nM test compound (final concentration of DMSO was 4%) or 4% DMSO alone (as the control sample), was incubated at 30° C. for 30 minutes. The reaction was then stopped by adding 5 μL of 3% phosphoric acid solution. The resultant solution was transferred to and harvested by a filter plate (UniFilter-96 GF/B, PerkinElmer). The filter plate was then washed 20 times with d.d. H2O for 5 min followed by the addition of 30 μL of MicroScint™-20 Cocktail (PerkinElmer). After the plate was sealed, the retained radioactivity on the filter was counted using a TopCount scintillation detector (PerkinElmer). The percentage of inhibition rate of the test compound was calculated by dividing the retained radioactivity of the test sample with the retained radioactivity of the control sample and shown in Table 3.

T1 sequence (P08581 1078-1345 limits assumed): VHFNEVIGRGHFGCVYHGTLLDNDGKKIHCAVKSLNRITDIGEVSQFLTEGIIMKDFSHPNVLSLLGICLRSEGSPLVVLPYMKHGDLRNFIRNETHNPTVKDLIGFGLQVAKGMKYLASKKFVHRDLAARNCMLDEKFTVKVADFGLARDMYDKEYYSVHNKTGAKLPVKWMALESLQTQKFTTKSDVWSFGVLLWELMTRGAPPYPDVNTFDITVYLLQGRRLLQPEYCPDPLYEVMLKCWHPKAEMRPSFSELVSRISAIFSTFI

Row | Structure (SMILES) | inhibition at 0.5 µM (c-Met kinase) [%] | inhibition at 1 µM (Aurora B kinase) [%] | IC50 (Aurora A kinase) [nM] | inhibition at 1 µM (Aurora A kinase) [%] | inhibition at 0.5 µM (VEGFR2 kinase) [%] | IC50 (Aurora B kinase) [nM]
1 | O=C(O)CCc1c(/C=C2\C(=O)Nc3ccc(S(=O)(=O)Cc4ccc(F)cc4)cc32)[nH]c2c1C(=O)CCC2 [DCB-70072, (Z)-5-(4-fluorobenzylsulfonyl)-3-((3-carboxyethyl-4-oxo-4,5,6,7-tetrahydro-1H-indol-2-yl)methylene)indolin-2-one] | 62.8 | 15.5 | 443 | 71.1 | 86 | –
2 | O=C(O)CCc1c(/C=C2\C(=O)Nc3ccc(S(=O)(=O)Cc4c(Cl)cccc4Cl)cc32)[nH]c2c1C(=O)CCC2 [DCB-70073, (Z)-5-(2,6-dichlorobenzylsulfonyl)-3-((3-carboxyethyl-4-oxo-4,5,6,7-tetrahydro-1H-indol-2-yl)methylene)indolin-2-one] | 91.6 | 9.4 | – | 65.5 | 71.3 | –
3 | CCOC(=O)CCc1c(/C=C2\C(=O)Nc3ccc(NC(=O)c4ccc(F)cc4)cc32)[nH]c2c1C(=O)CCC2 [DCB-70074, (Z)-5-(4-fluorobenzamido)-3-((3-(3-ethoxy-3-oxopropyl)-4-oxo-4,5,6,7-tetrahydro-1H-indol-2-yl)methylene)indolin-2-one] | 21.5 | 15.1 | – | 19.3 | 25 | –
4 | O=C(O)CCc1c(/C=C2\C(=O)Nc3cc(-c4ccc(O)cc4)ccc32)[nH]c2c1C(=O)CCC2 [DCB-70075, (Z)-6-(4-hydroxyphenyl)-3-((3-carboxyethyl-4-oxo-4,5,6,7-tetrahydro-1H-indol-2-yl)methylene)indolin-2-one] | 21.8 | 55.8 | 86.3 | 92.4 | 99.6 | 456
5 | O=C(O)CCc1c(/C=C2\C(=O)Nc3ccc(NC(=O)c4ccc(F)cc4)cc32)[nH]c2c1C(=O)CCC2 [DCB-70076, (Z)-5-(4-fluorobenzamido)-3-((3-carboxyethyl-4-oxo-4,5,6,7-tetrahydro-1H-indol-2-yl)methylene)indolin-2-one] | 21.8 | 7.4 | – | 40.7 | 59.8 | –

Next, values leading:

Row | inhibition at 0.5 µM (c-Met kinase) [%] | inhibition at 1 µM (Aurora B kinase) [%] | IC50 (Aurora A kinase) [nM] | inhibition at 1 µM (Aurora A kinase) [%] | inhibition at 0.5 µM (VEGFR2 kinase) [%] | IC50 (Aurora B kinase) [nM] | Structure (SMILES)
6 | 4.1 | 47.5 | – | 57 | 89.7 | – | CCOC(=O)CCc1c(/C=C2\C(=O)Nc3cc(-c4ccc(O)c(O)c4)ccc32)[nH]c2c1C(=O)CCC2 [DCB-70077, (Z)-6-(3,4-dihydroxyphenyl)-3-((3-(3-ethoxy-3-oxopropyl)-4-oxo-4,5,6,7-tetrahydro-1H-indol-2-yl)methylene)indolin-2-one]
7 | -54.1 | 63.4 | 46.1 | 91.6 | 98.9 | 438 | O=C(O)CCc1c(/C=C2\C(=O)Nc3cc(-c4ccc(O)c(O)c4)ccc32)[nH]c2c1C(=O)CCC2 [DCB-70078, (Z)-6-(3,4-dihydroxyphenyl)-3-((3-carboxyethyl-4-oxo-4,5,6,7-tetrahydro-1H-indol-2-yl)methylene)indolin-2-one]
8 | 21.4 | 16 | – | 8.8 | 15.6 | – | CCOC(=O)CCc1c(/C=C2\C(=O)Nc3cc(-c4cc5ccccc5s4)ccc32)[nH]c2c1C(=O)CCC2 [DCB-70079, (Z)-6-(benzo[b]thiophen-2-yl)-3-((3-(3-ethoxy-3-oxopropyl)-4-oxo-4,5,6,7-tetrahydro-1H-indol-2-yl)methylene)indolin-2-one]
9 | -21.3 | 35.2 | – | 40.3 | 76.9 | – | O=C(O)CCc1c(/C=C2\C(=O)Nc3cc(-c4cc5ccccc5s4)ccc32)[nH]c2c1C(=O)CCC2 [DCB-70080, (Z)-6-(benzo[b]thiophen-2-yl)-3-((3-carboxyethyl-4-oxo-4,5,6,7-tetrahydro-1H-indol-2-yl)methylene)indolin-2-one]

From US7897602B2, “Indolinone compounds as kinase inhibitors” (Development Center for Biotechnology, priority 2009, dated 2011)
